The test system of the assay is HCV replicon RNA-containing Huh7 cells (clone A cells). The assay can be described thus: HCV replicon assay (replicon RNA by RT-PCR, ΔCt HCV, EC90). It is filed as cell-based. Conditions: Hepatitis C virus, Huh-7, 96 h; for log reduction at 50 µM: read-out: Log10 Reduction at 50 μM. The method, then:
HCV replicon assay. HCV replicon RNA-containing Huh7 cells (clone A cells; Apath, LLC, St. Louis, Mo.) were kept at exponential growth in Dulbecco's modified Eagle's medium (high glucose) containing 10% fetal bovine serum, 4 mM L-glutamine and 1 mM sodium pyruvate, 1×nonessential amino acids, and G418 (1,000 μg/ml). Antiviral assays were performed in the same medium without G418. Cells were seeded in a 96-well plate at 1,500 cells per well, and test compounds were added immediately after seeding. Incubation time 4 days. At the end of the incubation step, total cellular RNA was isolated (RNeasy 96 kit; Qiagen). Replicon RNA and an internal control (TaqMan rRNA control reagents; Applied Biosystems) were amplified in a single-step multiplex RT-PCR protocol as recommended by the manufacturer. The HCV primers and probe were designed with Primer Express software (Applied Biosystems) and covered highly conserved 5′-untranslated region (UTR) sequences (sense, 5′-AGCCATGGCGTTAGTA(T)GAGTGT-3′ (SEQ ID NO: 1), and antisense, 5′-TTCCGCAGACCACTATGG-3′ (SEQ ID NO: 2); probe, 5′-FAM-[…]-TAMRA-3′ (SEQ ID NO: 3)).
To express the antiviral effectiveness of a compound, the threshold RT-PCR cycle of the test compound was subtracted from the average threshold RT-PCR cycle of the no-drug control (ΔCtHCV). A ΔCt of 3.3 equals a 1-log 10 reduction (equal to the 90% effective concentration [EC90]) in replicon RNA levels. The cytotoxicity of the test compound could also be expressed by calculating the ΔCtrRNA values. The ΔΔCt specificity parameter could then be introduced (ΔCtHCV−ΔCtrRNA), in which the levels of HCV RNA are normalized for the rRNA levels and calibrated against the no-drug control.

The results in this text go back to patent US10183037B2, “Nucleoside phosphoramidate prodrugs” (Gilead Pharmasset LLC, priority 2007, dated 2019).

Take `COC(=O)CNP(=O)(OC[C@H]1O[C@@H](n2ccc(=O)[nH]c2=O)[C@](C)(F)[C@@H]1O)Oc1ccccc1` (stereo partly drawn) [compound 15]: the EC90 (commonly the concentration at which the effect reaches the 90% level) is 860 nM.

In the case of `C[C@H](NP(=O)(OC[C@H]1O[C@@H](n2ccc(=O)[nH]c2=O)[C@](C)(F)[C@@H]1O)Oc1ccccc1)C(=O)OC1CCCCC1` (stereo partly drawn) [compound 49], the EC90 came out at 126 nM and the log reduction at 50 µM was determined as 2.69.

On to `COC(=O)[C@@H](NP(=O)(OC[C@H]1O[C@@H](n2ccc(=O)[nH]c2=O)[C@](C)(F)[C@@H]1O)Oc1ccc(Br)cc1)C(C)C` (stereo partly drawn) [Example 7, 2′-Deoxy-2′-fluoro-2′-C-methyluridine 5′-(4-bromophenylmethoxy-valyl phosphate)], for which the log reduction at 50 µM is -0.31.

Consider `CCOC(=O)[C@H](C)NP(=O)(OC[C@H]1O[C@@H](n2ccc(=O)[nH]c2=O)[C@](C)(F)[C@@H]1O)Oc1ccc(F)cc1` (stereo partly drawn) [compound 27], for which the EC90 turned out to be 660 nM and the log reduction at 50 µM came out at 2.25.

For the compound `CC(C)OC(=O)[C@H](C)NP(=O)(OC[C@H]1O[C@@H](n2ccc(=O)[nH]c2=O)[C@](C)(F)[C@@H]1O)Oc1ccccc1` (stereo partly drawn) [compound 25], the EC90 was 390 nM and the log reduction at 50 µM is 2.22.

`COC(=O)[C@H](C)NP(=O)(OC[C@H]1O[C@@H](n2ccc(=O)[nH]c2=O)[C@](C)(F)[C@@H]1O)Oc1ccccc1` (stereo partly drawn) [Example 5, 2′-Deoxy-2′-fluoro-2′-C-methyluridine 5′-(phenylmethoxy-alanyl phosphate)]: the 90% effect concentration (EC90) turned out to be 3000 nM and the log reduction at 50 µM was 1.21.

In the case of `COC(=O)[C@@H](NP(=O)(OC[C@H]1O[C@@H](n2ccc(N)nc2=O)[C@](C)(F)[C@@H]1O)Oc1ccccc1)C(C)C` (stereo partly drawn) [Example 12, 2′-deoxy-2′-fluoro-2′-C-methylcytidine 5′-(phenylmethoxy-valyl phosphate)], the log reduction at 50 µM is -0.31.

With `CC(C)OC(=O)[C@H](C)NP(=O)(OC[C@H]1O[C@@H](n2ccc(=O)[nH]c2=O)[C@](C)(F)[C@@H]1O)Oc1ccccc1Cl` (stereo partly drawn) [compound 36], it took 21900 nM to reach the 90% level (EC90) and the log reduction at 50 µM was determined as 1.64.

As to `COC(=O)[C@@H](NP(=O)(OC[C@H]1O[C@@H](n2ccc(=O)[nH]c2=O)[C@](C)(F)[C@@H]1O)Oc1ccccc1)C(C)C` (stereo partly drawn) [Example 6, 2′-Deoxy-2′-fluoro-2′-C-methyluridine 5′-(phenylmethoxy-valyl phosphate)], the log reduction at 50 µM is 0.45.

Regarding `CCCCOC(=O)[C@H](C)NP(=O)(OC[C@H]1O[C@@H](n2ccc(=O)[nH]c2=O)[C@](C)(F)[C@@H]1O)Oc1ccccc1Cl` (stereo partly drawn) [compound 53], the EC90 was below 300 nM and the log reduction at 50 µM was 1.33.

Regarding `C[C@H](NP(=O)(OC[C@H]1O[C@@H](n2ccc(=O)[nH]c2=O)[C@](C)(F)[C@@H]1O)Oc1ccc(F)cc1)C(=O)OC1CCCCC1` (stereo partly drawn) [compound 55], the EC90 was below 300 nM and the log reduction at 50 µM stood at 2.38.

Turning to `CC(C)OC(=O)[C@H](C)NP(=O)(OC[C@H]1O[C@@H](n2ccc(=O)[nH]c2=O)[C@](C)(F)[C@@H]1O)Oc1ccc(Cl)cc1` (stereo partly drawn) [compound 39], the EC90 is 470 nM and the log reduction at 50 µM is 1.78.

In the case of `COC(=O)[C@H](C)NP(=O)(OC[C@H]1O[C@@H](n2ccc(N)nc2=O)[C@](C)(F)[C@@H]1O)Oc1ccccc1` (stereo partly drawn) [Example 10, 2′-Deoxy-2′-fluoro-2′-C-methylcytidine 5′-(phenylmethoxy-alanyl phosphate)], the EC90 stood at 19200 nM and the log reduction at 50 µM was determined as 1.25.

Consider `COC(=O)[C@H](C)NP(=O)(OC[C@H]1O[C@@H](N2C=NC3C(N4CCC4)=NC(N)=NC32)[C@](C)(F)[C@@H]1O)Oc1ccccc1` (stereo partly drawn) [compound 70], for which the EC90 is below 300 nM and the log reduction at 50 µM came out at 2.25.

Regarding `COC(=O)[C@@H](NP(=O)(OC[C@H]1O[C@@H](n2ccc(N)nc2=O)[C@](C)(F)[C@@H]1O)Oc1ccc(Br)cc1)C(C)C` (stereo partly drawn) [Example 11, 2′-Deoxy-2′-fluoro-2′-C-methylcytidine 5′-(4-bromophenylmethoxy-valyl phosphate)], the log reduction at 50 µM was found to be 0.55.

As to `CC(C)OC(=O)[C@H](C)NP(=O)(OC[C@H]1O[C@@H](n2ccc(=O)[nH]c2=O)[C@](C)(F)[C@@H]1O)Oc1ccc(Br)cc1` (stereo partly drawn) [compound 54], the EC90 worked out at 570 nM and the log reduction at 50 µM turned out to be 1.55.

As to `CC(C)OC(=O)[C@H](C)NP(=O)(OC[C@H]1O[C@@H](n2ccc(=O)[nH]c2=O)[C@](C)(F)[C@@H]1O)Oc1ccc(F)cc1` (stereo partly drawn) [compound 28], the 90% effect level (EC90) was put at 750 nM and the log reduction at 50 µM is 2.16.

Regarding `COC(=O)[C@H](C)NP(=O)(OC[C@H]1O[C@@H](N2C=NC3C(NC4CCCC4)=NC(N)=NC32)[C@](C)(F)[C@@H]1O)Oc1ccccc1` (stereo partly drawn) [compound 69], the EC90 was below 300 nM and the log reduction at 50 µM was 2.25.

For the compound `COC(=O)[C@H](C)NP(=O)(OC[C@H]1O[C@@H](n2ccc(=O)[nH]c2=O)[C@](C)(F)[C@@H]1O)Oc1ccc(Br)cc1` (stereo partly drawn) [Example 8, 2′-Deoxy-2′-fluoro-2′-C-methyluridine 5′-(4-bromophenylmethoxy-alanyl phosphate)], it took 2110 nM to reach the 90% level (EC90) and the log reduction at 50 µM is 1.48.
